The values below come from patent US20100234306A1, “USE OF A PEPTIDE AS A THERAPEUTIC AGENT” (priority 2007, published 2010).

The subject of the assay is drug-resistant Mycobacterium tuberculosis. As to conditions: Mycobacterium tuberculosis resistant against PAS, streptomycin and isoniazid; Middlebrook 7H12, seven days; peptide 10 micrograms per ml.

Where no end group is shown, it is not given here.

With MQMKKVLDS-OH [AIP-1], the % inhibition (usually the share of the control response that was lost under treatment) came to 100.0%.
